The source of these data is publication PMC3889466 (Journal of medicinal chemistry, 2013).

Test [1] has as its target T1, A/M2 S31N (Influenza A virus, UniProt P0DOF5, S31N). Particulars: conductance assay in M2-expressing oocytes; cited from earlier work.
The next test addresses A/M2 V27A (Influenza A virus, UniProt P0DOF5, V27A). The conditions noted are these: cited from earlier work.
Test [2] has as its target T1, A/M2 S31N. The format is cell-based, influenza A/Udorn/72. Particulars: pH 5.5.

For `CC12CC3CC1(C)CC3(CN)C2` [Compound 7], on A/M2 S31N [1], the “Activity against the S31N mutant form of A/M2 (in words)” value was “inactive”. In addition, the “Activity against the V27A mutant form of A/M2 (in words)” value (“Activity against the V27A mutant form” below) at A/M2 V27A is “inactive”.

Turning to `NCC12C3CCC4C3C3C(CCC31)C42` [Compound 9], the “Activity against the V27A mutant form” value at A/M2 V27A is “did not show any activity”.

Regarding `CC12CC34CNCC3(C1)CC2(C)C4.Cl` [Compound 14a, 7,8-Dimethyl-3-azatetracyclo[5.2.1.1^5,8.0^1,5]undecane hydrochloride], on A/M2 S31N [2], the “A/M2 S31N Inhibition by 100 μM for 2 min (%)” value was found to be 0%. With `C1C2C1C1C3C4C5C6CC6C4C14CNCC54C23` (stereo not drawn) [Compound 11], at A/M2 V27A, the “Activity against the V27A mutant form” value is “marginal activity”.

With `C1=CC2C3C4C5C=CC4C24CNCC54C13` [Compound 10], the “Activity against the V27A mutant form” value at A/M2 V27A is on record as “marginal activity”. On to `CC12CC3CC1(C)CC3(N)C2` [Compound 6], for which the “Activity against the S31N mutant form of A/M2 (in words)” value on A/M2 S31N [1] is “inactive”. Moreover, on A/M2 V27A, the “Activity against the V27A mutant form” value was “inactive”. Regarding `NC12C3CCC4C3C3C(CCC31)C42` [Compound 8], the “Activity against the V27A mutant form” value on A/M2 V27A is “did not show any activity”.
